From patent US12427120B2, “Compositions comprising guaifenesin and flavour compounds containing an isovanillyl group” (SYMRISE AG, priority 2018, dated 2025)
“And” between values parts separate entries of the source, which are not always exact repeats. Identical values can stand only once. Marks after values point to notes of the source that are not given here.

Legend:
[1] = tested on: HGT-1 cells; assay: Guaifenesin-induced acid (proton) secretion in HGT-1 cells; type: cell-based, Human; conditions: for change in proton secretory activity of HGT-1 cells compared to 10 mM guaifenesin alone: 30 μM co-incubated with 10 mM guaifenesin, from 10 min onwards
Description: Human gastric tumour cell line 1 (HGT-1; Laboisse C. L.; Augeron C.; Couturier-Turpin M. H.; Gespach C.; Cheret A. M.; Potet F., Characterization of a newly established human gastric cancer cell line HGT-1 bearing histamine H2-receptors, Canc. Res., 1982, 42, 1541 to 1548) is a suitable screening tool for detecting the interaction of bitter agents and bitter modulating substances (Liszt, K. I.; Hans, J.; Ley, J. P.; Kock, E.; Somoza, V., Characterization of bitter compounds via modulation of proton secretion in human gastric parietal cells in culture, J. Agric. Food Chem., 2018, 66 (10), 2295-2300.). Therefore, the effect of hesperetin and phyllodulcin on guaifenesin-induced acid secretion in the HGT-1 cell line was determined to predict the modulation of guaifenesin-induced bitterness by hesperetin and phyllodulcin. To this aim, HGT-1 cells were cultured under standard conditions and passaged at ca. 80% confluence. […] HGT-1 cells were pre-loaded with (acetyloxy)methyl-3-(acetyloxy)-10-(dimethylamino)-3′-oxo-spiro[7H-benzo[c]xanthene-7,1′(3H)-isobenzofuran]-ar′-carboxylate and incubated in 130 mM NaCl 130, 4.7 mM KCl, 1.3 mM CaCl2), 1.2 mM MgSO4, 1.2 mM KH2PO4, 11.7 mM glucose, 10 mM HEPES 10, 20 μM 4,4′-Diisothiocyanatostilbene-2,2′-disulfonic acid disodium and 20 μM 5-(N-Ethyl-N-isopropyl)amiloride at pH 7.4. Fluorescence recordings were performed with an excitation wavelength of 488 nm and monitoring the emission wavelengths of 580 nm and 640 nm, respectively, each with a 20 nm bandwidth. […]
The data in Table 1 and Table 2 are presented as mean±SEM derived from 3 biological replicates and 6 to 9 technical replicates. Outliers were identified using the Nalimov test, statistical significance was tested one-way ANOVA with Tukey's range test for multiple comparisons and Bonferroni correction, establishing the threshold for significance at p<0.01. Accordingly, data are marked with *(p<0.007), **(p<0.001) or ***(p<0.0001). Control: untreated cells

[2] = tested on: guaifenesin-induced bitterness perception; assay: Sensory panel test of guaifenesin-induced bitterness perception (sip and spit, scale 0 to 100); type: in vivo, human; conditions: trained panel n=20 to 30
Procedure: To verify the effect of hesperetin and phyllodulcin on guaifenesin-induced bitterness perception, an aqueous solution of 1.3 g/l guaifenesin (1) was tested against an aqueous solution containing 1.3 g/l guaifenesin and 100 mg/l hesperetin (2) or 7 mg/l phyllodulcin (3) or 100 mg/l homoeriodictyol as comparison (4). The test was conducted as a randomized comparison test in a trained sensory panel (n=20 to 30) via a sip and spit procedure. The panellists tasted both solutions in a blinded fashion and rated bitterness on a scale of 0 to 100.

[3] = tested on: guaifenesin bitterness; conditions: 200 ppm (200 mg/l, 0.2 mg/ml) HED against 13 mg/ml guaifenesin; cited from earlier work
[4] = 30 μM flavour compound co-incubated with 10 mM guaifenesin, time-point 0 min
[5] = 30 μM flavour compound co-incubated with 10 mM guaifenesin, time-point 5 min
[6] = 30 μM flavour compound co-incubated with 10 mM guaifenesin, time-point 10 min
[7] = 30 μM flavour compound co-incubated with 10 mM guaifenesin, time-point 15 min
[8] = 30 μM flavour compound co-incubated with 10 mM guaifenesin, time-point 20 min
[9] = 30 μM flavour compound co-incubated with 10 mM guaifenesin, time-point 25 min
[10] = 30 μM flavour compound co-incubated with 10 mM guaifenesin, time-point 30 min
[11] = 100 mg/l (racemic) in aqueous 1.3 g/l guaifenesin versus 1.3 g/l guaifenesin

SMILES	change in proton secretory activity of HGT-1 cells compared to 10 mM guaifenesin alone [1]	proton secretory activity (log 2 transformed ratio of treated versus untreated cells), mean [1, 4]	proton secretory activity (log 2 transformed ratio of treated versus untreated cells), mean [1, 5]	proton secretory activity (log 2 transformed ratio of treated versus untreated cells), mean [1, 6]	proton secretory activity (log 2 transformed ratio of treated versus untreated cells), mean [1, 7]	proton secretory activity (log 2 transformed ratio of treated versus untreated cells), mean [1, 8]	proton secretory activity (log 2 transformed ratio of treated versus untreated cells), mean [1, 9]	proton secretory activity (log 2 transformed ratio of treated versus untreated cells), mean [1, 10]	Modulation versus control (relative difference in bitter ratings) [2, 11]	reduction in guaifenesin bitterness [3]	proton secretory activity (log 2 transformed ratio of treated versus untreated cells), mean ([1]; 10 mM guaifenesin alone, time-point 0 min)	proton secretory activity (log 2 transformed ratio of treated versus untreated cells), mean ([1]; 10 mM guaifenesin alone, time-point 5 min)	proton secretory activity (log 2 transformed ratio of treated versus untreated cells), mean ([1]; 10 mM guaifenesin alone, time-point 10 min)	proton secretory activity (log 2 transformed ratio of treated versus untreated cells), mean ([1]; 10 mM guaifenesin alone, time-point 15 min)	proton secretory activity (log 2 transformed ratio of treated versus untreated cells), mean ([1]; 10 mM guaifenesin alone, time-point 20 min)	proton secretory activity (log 2 transformed ratio of treated versus untreated cells), mean ([1]; 10 mM guaifenesin alone, time-point 25 min)	proton secretory activity (log 2 transformed ratio of treated versus untreated cells), mean ([1]; 10 mM guaifenesin alone, time-point 30 min)	Modulation versus control (relative difference in bitter ratings) ([2]; 7 mg/l (98 weight %, 95 mol % enantiomeric purity) in aqueous 1.3 g/l guaifenesin versus 1.3 g/l guaifenesin)
COc1ccc([C@@H]2CC(=O)c3c(O)cc(O)cc3O2)cc1O (racemic) [hesperetin, (2S)-/(2R)-5,7-dihydroxy-2-(3-hydroxy-4-methoxyphenyl)-4-chromanone]	significant decrease	−0.132	0.05735***	−0.04329*	0.03955***	0.002334***	0.01577***	0.02592***	−25%	–	–	–	–	–	–	–	–	–
COc1cc([C@@H]2CC(=O)c3c(O)cc(O)cc3O2)ccc1O (racemic) [homoeriodictyol, (2S)-/(2R)-5,7-Dihydroxy-2-(4-hydroxy-3-methoxyphenyl)-4-chromanone, reference compound]	–	–	–	–	–	–	–	–	−12%	about 40%	–	–	–	–	–	–	–	–
COc1ccccc1OCC(O)CO (stereo not drawn) [guaifenesin, 3-(2-methoxyphenoxy-)1,2-propanediol]	–	–	–	–	–	–	–	–	–	–	0.2711 and 0.2596	0.2378 and 0.2475	0.2801 and 0.187	0.2178 and 0.2259	0.323 and 0.265	0.3953 and 0.1861	0.2706 and 0.2473	–
COc1ccc([C@H]2Cc3cccc(O)c3C(=O)O2)cc1O [phyllodulcin, (3S)-/(3R)-8-hydroxy-3-(3-hydroxy-4-methoxy-phenyl)isochroman-1-one]	significant decrease	−0.08165*	0.0579***	0.07294***	−0.04172	0.08512*	−0.1469	0.1433***	–	–	–	–	–	–	–	–	–	−15%
